Test results: patent publication US10633419B2, “Immunomodulators” (BRISTOL-MYERS SQUIBB COMPANY, priority 2014, dated 2020)
Starred links: 1 amine or outer side, 2 acyl side, 3 side chain; linkers in the order of their positions; H or OH if unused. Positions of bridges follow the written chain, without caps; N, C: chain ends. Non-standard residues stand in square brackets, D forms with d. Residues, ends and D or L forms follow the SMILES beside them. *: point of attachment. δOrn(Nα-Octadecanedioyl) = O=C(O)CCCCCCCCCCCCCCCCC(=O)N[C@@H](CCCN*)C(=O)O; X13 = O=C(O)CCCCCCCCCCCCCCC(=O)N[C@@H](CCC(=O)NCCCOCCOCCOCCCN*)C(=O)O; Trp(1-CH2COOH) = N[C@@H](Cc1cn(CC(=O)O)c2ccccc12)C(=O)O; X14 = O=C(O)CCCCCCCCCCNC(=O)CCC(=O)NCCCOCCOCCOCCCN*; X9 = O=C(O)CCCCCCCCCCCCCCCCC(=O)N[C@@H](CCN*)C(=O)O; d(cisHyp) = O=C(O)[C@H]1C[C@@H](O)CN1; βAsp = O=C(O)[C@H](CC(=O)[*:2])N[*:1]; NH(CH2)12COOH = O=C(O)CCCCCCCCCCCCN*; Gly(octyl) = CCCCCCCC[C@H](N)C(=O)O; PEG6 = NCCOCCOCCOCCOCCOCCOCCC(=O)O; cisHyp = O=C(O)[C@@H]1C[C@H](O)CN1; Palmitoyl = CCCCCCCCCCCCCCCC(=O)*; Hyp = O=C(O)[C@@H]1C[C@@H](O)CN1; NHhexadecyl = CCCCCCCCCCCCCCCCN*; NMeNle = CCCC[C@H](NC)C(=O)O; Pip = O=C(O)[C@@H]1CCCCN1; NMeA = CN[C@@H](C)C(=O)O; Pra = C#CC[C@H](N)C(=O)O; Aun = NCCCCCCCCCCC(=O)O; Dab = NCC[C@H](N)C(=O)O; Dap = NC[C@H](N)C(=O)O; GABA = NCCCC(=O)O

biological target: T1, PD-L1 (Homo sapiens, UniProt Q9NZQ7); assay: PD-1/PD-L1 Homogenous Time-Resolved Fluorescence (HTRF) binding assay (PD-1-Ig/PD-L1-His); conditions: not given
T1 construct: hPDL1(19-239)-TVMV-His; made in house; host or cells: HEK293T
T1 sequence (Q9NZQ7 with tags, fused parts or gaps): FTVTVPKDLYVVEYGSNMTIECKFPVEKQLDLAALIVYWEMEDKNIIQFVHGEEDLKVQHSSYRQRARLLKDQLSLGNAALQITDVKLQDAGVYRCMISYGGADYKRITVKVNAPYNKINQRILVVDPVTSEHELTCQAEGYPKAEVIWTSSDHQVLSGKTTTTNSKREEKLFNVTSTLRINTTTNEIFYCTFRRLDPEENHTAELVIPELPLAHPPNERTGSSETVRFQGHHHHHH
Summary of the method: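 Inhibitors pre-incubated 15 min with PD-L1-His (10 nM final), then PD-1-Ig (20 nM final) added for 15 min in dPBS/0.1% BSA/0.05% Tween-20. Eu-cryptate anti-Ig (1 nM) and APC anti-His (20 nM) added, 30 min equilibration, 665/620 nm HTRF ratio read.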

Compound	IC50
CCCC[C@H]1C(=O)N(C)[C@@H](CCCC)C(=O)N[C@@H](CCC(=O)O)C(=O)N[C@H](C(=O)NCC(=O)N[C@@H](Cc2cn(CCOCCOCCOCCOC(=O)CCC(=O)Oc3c(C)c(C)c4c(c3C)CC[C@@](C)(CCC[C@H](C)CCC[C@H](C)CCCC(C)C)O4)nn2)C(=O)NCC(N)=O)CSCC(=O)N[C@@H](Cc2ccc(O)cc2)C(=O)N(C)[C@@H](C)C(=O)N[C@@H](CC(=O)O)C(=O)N2CCC[C@H]2C(=O)N[C@@H](Cc2c[nH]cn2)C(=O)N[C@@H](CCCCN)C(=O)N2C[C@H](O)C[C@H]2C(=O)N[C@@H](Cc2c[nH]c3ccccc23)C(=O)N[C@@H](CCCCN)C(=O)N[C@@H](Cc2c[nH]c3ccccc23)C(=O)N1C [Example 14060]	100 to 1600 nM

same assay, conditions: inhibition of PD-1-Ig binding to PD-L1-TVMV-His; value given as number; read-out: HTRF IC50

IC50	Compound
13 nM	CCCCCCCC[C@H](NC(=O)CCCCCCCCCCNC(=O)[C@@H]1CSCC(=O)N[C@@H](Cc2ccc(O)cc2)C(=O)N(C)[C@@H](C)C(=O)N[C@@H](CC(N)=O)C(=O)N2CCC[C@H]2C(=O)N[C@@H](CN)C(=O)N[C@@H](CC(C)C)C(=O)N2C[C@H](O)C[C@H]2C(=O)N[C@@H](Cc2c[nH]c3ccccc23)C(=O)N[C@@H](CCN)C(=O)N[C@@H](Cc2cn(CC(=O)O)c3ccccc23)C(=O)N(C)[C@@H](CCCC)C(=O)N(C)[C@@H](CCCC)C(=O)N[C@@H](CC(C)C)C(=O)N1)C(=O)O [Example 11102] ({CH2CO}-Y[NMeA]NP[Dap]L[Hyp]W[Dab][Trp(1-CH2COOH)][NMeNle][NMeNle]LC[Aun][Gly(octyl)]-OH; thioether N-14)
4.1 nM	CCCC[C@H]1C(=O)N(C)[C@@H](CCCC)C(=O)N[C@@H](CC(C)C)C(=O)N[C@H](C(=O)NCC(=O)N[C@H](CC(=O)O)C(=O)NCCCCCCCCCCC(=O)O)CSCC(=O)N[C@@H](Cc2ccc(O)cc2)C(=O)N(C)[C@@H](C)C(=O)N[C@@H](CC(N)=O)C(=O)N2CCC[C@H]2C(=O)N[C@@H](CN)C(=O)N[C@@H](CC(C)C)C(=O)N2C[C@H](O)C[C@H]2C(=O)N[C@@H](Cc2c[nH]c3ccccc23)C(=O)N[C@@H](CCN)C(=O)N[C@@H](Cc2cn(CC(=O)O)c3ccccc23)C(=O)N1C [Example 11101] ({CH2CO}-Y[NMeA]NP[Dap]L[Hyp]W[Dab][Trp(1-CH2COOH)][NMeNle][NMeNle]LCG[dD][Aun]-OH; thioether N-14)
3.8 nM	CCCC[C@H]1C(=O)N(C)[C@@H](CCCC)C(=O)N[C@@H](CC(C)C)C(=O)N[C@H](C(=O)NCC(=O)N[C@@H](CC(=O)NCCCC(=O)NCC[C@H](NC(=O)CCCCCCCCCCCCCCCCC(=O)O)C(=O)O)C(=O)O)CSCC(=O)N[C@@H](Cc2ccc(O)cc2)C(=O)N2CCCC[C@H]2C(=O)N[C@@H](CC(N)=O)C(=O)N2CCC[C@H]2C(=O)N[C@@H](CN)C(=O)N[C@@H](CC(C)C)C(=O)N2C[C@H](O)C[C@H]2C(=O)N[C@@H](Cc2c[nH]c3ccccc23)C(=O)N[C@@H](CCN)C(=O)N[C@@H](Cc2cn(CC(=O)O)c3ccccc23)C(=O)N1C [Example 13162] ({CH2CO}-Y[Pip]NP[Dap]L[Hyp]W[Dab][Trp(1-CH2COOH)][NMeNle][NMeNle]LCG[βAsp][GABA]-X9; thioether N-14)
12.7 nM	CCCC[C@H]1C(=O)N(C)[C@@H](CCCC)C(=O)N[C@@H](CCC(=O)O)C(=O)N[C@H](C(=O)NCCCOCCOCCOCCCNC(=O)CCC(=O)NCCCCCCCCCCC(=O)O)CSCC(=O)N[C@@H](Cc2ccc(O)cc2)C(=O)N(C)[C@@H](C)C(=O)N[C@@H](CC(N)=O)C(=O)N2CCC[C@H]2C(=O)N[C@@H](Cc2cnc[nH]2)C(=O)N[C@@H](CCCCN)C(=O)N2C[C@H](O)C[C@H]2C(=O)N[C@@H](Cc2c[nH]c3ccccc23)C(=O)N[C@@H](CO)C(=O)N[C@@H](Cc2cn(CC(=O)O)c3ccccc23)C(=O)N1C [Example 11080] ({CH2CO}-Y[NMeA]NPHK[Hyp]WS[Trp(1-CH2COOH)][NMeNle][NMeNle]EC-X14; thioether N-14)

same assay, conditions: inhibition of PD-1-Ig binding to PD-L1-TVMV-His; value given as range class; read-out: HTRF IC50

IC50	Compound
0.3 to 9.9 nM	CCCC[C@H]1C(=O)N(C)[C@@H](CCCC)C(=O)N[C@@H](CC(C)C)C(=O)N[C@H](C(=O)NCC(=O)N[C@@H](CC(=O)O)C(=O)N[C@@H](CCC(=O)NCCCOCCOCCOCCCNC(=O)CC[C@H](NC(=O)CCCCCCCCCCCCCCC(=O)O)C(=O)O)C(=O)O)CSCC(=O)N[C@@H](Cc2ccc(O)cc2)C(=O)N(C)[C@@H](C)C(=O)N[C@@H](CC(N)=O)C(=O)N2CCC[C@H]2C(=O)N[C@@H](CN)C(=O)N[C@@H](CC(C)C)C(=O)N2C[C@H](O)C[C@H]2C(=O)N[C@@H](Cc2c[nH]c3ccccc23)C(=O)N[C@@H](CCN)C(=O)N[C@@H](Cc2cn(CC(=O)O)c3ccccc23)C(=O)N1C [Example 11170] ({CH2CO}-Y[NMeA]NP[Dap]L[Hyp]W[Dab][Trp(1-CH2COOH)][NMeNle][NMeNle]LCGDE(X13)-OH; thioether N-14)
10 to 99 nM	CCCC[C@H]1C(=O)N(C)[C@@H](CCCC)C(=O)N[C@@H](CC(C)C)C(=O)N[C@H](C(=O)NCC(=O)NCC(=O)NCC(=O)NCCCCCCCCCCC(=O)O)CSCC(=O)N[C@@H](Cc2ccc(O)cc2)C(=O)N(C)[C@@H](C)C(=O)N[C@@H](CC(=O)O)C(=O)N2CCC[C@H]2C(=O)N[C@@H](Cc2cnc[nH]2)C(=O)N[C@@H](CCC(=O)O)C(=O)N2C[C@H](O)C[C@H]2C(=O)N[C@@H](Cc2c[nH]c3ccccc23)C(=O)N[C@@H](CCN)C(=O)N[C@@H](Cc2cn(CC(=O)O)c3ccccc23)C(=O)N1C [Example 11098] ({CH2CO}-Y[NMeA]DPHE[Hyp]W[Dab][Trp(1-CH2COOH)][NMeNle][NMeNle]LCGGG[Aun]-OH; thioether N-14)
100 to 1600 nM	CCCCCCCCCCCCCCCC(=O)NCCCC[C@H](NC(=O)[C@H](CO)NC(=O)CNC(=O)CNC(=O)CNC(=O)[C@@H]1CSCC(=O)N[C@@H](Cc2ccc(O)cc2)C(=O)N(C)[C@@H](C)C(=O)N[C@@H](CC(N)=O)C(=O)N2CCC[C@H]2C(=O)N[C@@H](CCN)C(=O)N[C@@H](CC(C)C)C(=O)N2C[C@H](O)C[C@H]2C(=O)N[C@@H](Cc2c[nH]c3ccccc23)C(=O)N[C@@H](CO)C(=O)N[C@@H](Cc2c[nH]c3ccccc23)C(=O)N(C)[C@@H](CCCC)C(=O)N(C)[C@@H](CCCC)C(=O)N[C@@H](CCCNC(=N)N)C(=O)N1)C(N)=O [Example 11024] ({CH2CO}-Y[NMeA]NP[Dab]L[Hyp]WSW[NMeNle][NMeNle]RCGGGSK(Palmitoyl)-NH2; thioether N-14)
0.3 to 9.9 nM	C#CC[C@H](NC(=O)CNC(=O)[C@@H]1CSCC(=O)N[C@@H](Cc2ccc(O)cc2)C(=O)N(C)[C@@H](C)C(=O)N[C@@H](CC(=O)O)C(=O)N2CCC[C@H]2C(=O)N[C@@H](Cc2c[nH]cn2)C(=O)N[C@@H](CCCCN)C(=O)N2C[C@H](O)C[C@H]2C(=O)N[C@@H](Cc2c[nH]c3ccccc23)C(=O)N[C@@H](CCCCN)C(=O)N[C@@H](Cc2cn(CC(=O)O)c3ccccc23)C(=O)N(C)[C@@H](CCCC)C(=O)N(C)[C@@H](CCCC)C(=O)N[C@@H](CCC(=O)O)C(=O)N1)C(=O)N[C@@H](CC(=O)O)C(N)=O [INT 1400E] ({CH2CO}-Y[NMeA]DPHK[Hyp]WK[Trp(1-CH2COOH)][NMeNle][NMeNle]ECG[Pra]D-NH2; thioether N-14)
0.3 to 9.9 nM	CCCC[C@H]1C(=O)N(C)[C@@H](CCCC)C(=O)N[C@@H](CC(C)C)C(=O)N[C@H](C(=O)N[C@H](CC(=O)O)C(=O)NCC(=O)NCCCCCCCCCCCCC(=O)O)CSCC(=O)N[C@@H](Cc2ccc(O)cc2)C(=O)N(C)[C@@H](C)C(=O)N[C@@H](CC(=O)O)C(=O)N2CCC[C@@H]2C(=O)N[C@@H](Cc2cnc[nH]2)C(=O)N[C@@H](CCCCN)C(=O)N2C[C@@H](O)C[C@H]2C(=O)N[C@@H](Cc2c[nH]c3ccccc23)C(=O)N[C@@H](CCCCN)C(=O)N[C@@H](Cc2cn(CC(=O)O)c3ccccc23)C(=O)N1C [Example 11211] ({CH2CO}-Y[NMeA]D[dP]HK[cisHyp]WK[Trp(1-CH2COOH)][NMeNle][NMeNle]LC[dD]G-{NH(CH2)12COOH}; thioether N-14)
100 to 1600 nM	CCCCCCCCCCCCCCCCNC(=O)CCCCCCCCCCNC(=O)CNC(=O)[C@@H]1CSCC(=O)N[C@@H](Cc2ccc(O)cc2)C(=O)N(C)[C@@H](C)C(=O)N[C@@H](CC(N)=O)C(=O)N2CCC[C@H]2C(=O)N[C@@H](Cc2cnc[nH]2)C(=O)N[C@@H](CC(C)C)C(=O)N2C[C@H](O)C[C@H]2C(=O)N[C@@H](Cc2c[nH]c3ccccc23)C(=O)N[C@@H](CO)C(=O)N[C@@H](Cc2c[nH]c3ccccc23)C(=O)N(C)[C@@H](CCCC)C(=O)N(C)[C@@H](CCCC)C(=O)N[C@@H](CCCNC(=N)N)C(=O)N1 [Example 11112] ({CH2CO}-Y[NMeA]NPHL[Hyp]WSW[NMeNle][NMeNle]RCG[Aun]-NHhexadecyl; thioether N-14)
100 to 1600 nM	CCCC[C@H]1C(=O)N(C)[C@@H](CCCC)C(=O)N[C@@H](CC(C)C)C(=O)N[C@H](C(=O)NCC(=O)N[C@@H](CC(=O)NCCC[C@H](NC(=O)CCCCCCCCCCCCCCCCC(=O)O)C(=O)O)C(=O)O)CSCC(=O)N[C@@H](Cc2ccc(O)cc2)C(=O)N2CCCC[C@H]2C(=O)N[C@@H](CC(N)=O)C(=O)N2CCC[C@H]2C(=O)N[C@@H](CN)C(=O)N[C@@H](CC(C)C)C(=O)N2C[C@H](O)C[C@H]2C(=O)N[C@@H](Cc2c[nH]c3ccccc23)C(=O)N[C@@H](CCN)C(=O)N[C@@H](Cc2cn(CC(=O)O)c3ccccc23)C(=O)N1C [Example 13141] ({CH2CO}-Y[Pip]NP[Dap]L[Hyp]W[Dab][Trp(1-CH2COOH)][NMeNle][NMeNle]LCGD(δOrn(Nα-Octadecanedioyl))-OH; thioether N-14)
10 to 99 nM	CCCC[C@H]1C(=O)N(C)[C@@H](CCCC)C(=O)N[C@@H](CC(C)C)C(=O)N[C@H](C(=O)NCCOCCOCCOCCOCCOCCOCCC(=O)O)CSCC(=O)N[C@@H](Cc2ccc(O)cc2)C(=O)N(C)[C@@H](C)C(=O)N[C@@H](CC(N)=O)C(=O)N2CCC[C@H]2C(=O)N[C@@H](CO)C(=O)N[C@@H](CCC(N)=O)C(=O)N2C[C@H](O)C[C@@H]2C(=O)N[C@@H](Cc2c[nH]c3ccccc23)C(=O)N[C@@H](CN)C(=O)N[C@@H](Cc2cn(CC(=O)O)c3ccccc23)C(=O)N1C [Example 11046] ({CH2CO}-Y[NMeA]NPSQ[d(cisHyp)]W[Dap][Trp(1-CH2COOH)][NMeNle][NMeNle]LC[PEG6]-OH; thioether N-14)
